Results taken from article PMC9862759 (Viruses, 2023).
Where two headings read alike, the source gives them in different places.

What was measured:
HEK-293T-ACE2^h cells = assay: MTT cytotoxicity assay on host cells (4 h); type: cell-based, human; settings: for CC0 (maximum nontoxic concentration) / TC50 (concentration reducing cell viability by 50%): MTT, 4 h
[1] = molecular target: SARS-CoV-2 spike RBD protein (Severe acute respiratory syndrome coronavirus 2, UniProt P0DTC2); assay: biochemical; type: binding
Beas-2B cells = assay: MTT cytotoxicity on human normal cell line Beas-2B (24 h); type: cell-based; settings: for IC50: Homo sapiens, BEAS-2B, 24 h, read-out: IC50 Values of Human Normal Cell Lines, Beas-2B
LO2 cells = assay: MTT cytotoxicity on human normal cell line LO2 (24 h); type: cell-based; settings: for IC50: Homo sapiens, L02, 24 h, read-out: IC50 Values of Human Normal Cell Lines, LO2
HEK 293 cells = assay: MTT cytotoxicity on human normal cell line HEK 293 (24 h); type: cell-based; settings: for IC50: Homo sapiens, HEK293, 24 h, read-out: IC50 Values of Human Normal Cell Lines, HEK 293
SARS-CoV-2 pseudovirus [2] = settings: for IC50: read-out: IC50 (inhibition of pseudovirus entry into host cells)
SARS-CoV-2 pseudovirus [3] = assay: microbe, parasite or virus in culture; settings: Severe acute respiratory syndrome-related coronavirus, read-out: IC50 (inhibition of pseudovirus entry into host cells)

Structure (SMILES) | cytotoxicity to the host cells (in words) (HEK-293T-ACE2^h cells; 500 μM) | CC0 (maximum nontoxic concentration) (HEK-293T-ACE2^h cells) [µM] | TC50 (concentration reducing cell viability by 50%) (HEK-293T-ACE2^h cells) [µM] | binding signal [1] [nm] | IC50 (Beas-2B cells) [µM] | cytotoxic effect (in words), Beas-2B (Beas-2B cells; tested dose of 500 μM) | IC50 (LO2 cells) [µM] | cytotoxic effect (in words), LO2 (LO2 cells; tested dose of 500 μM) | IC50 (HEK 293 cells) [µM] | cytotoxic effect (in words), HEK 293 (HEK 293 cells; tested dose of 500 μM) | SI (ratio of TC50 to IC50) (SARS-CoV-2 pseudovirus [2]) | IC50 (SARS-CoV-2 pseudovirus [3]) [µM] | Kd [1] [µM] | IC50 (SARS-CoV-2 pseudovirus [2]) [µM]
O=c1c(O)c(-c2cc(O)c(O)c(O)c2)oc2cc(O)cc(O)c12 [compound 16, Myricetin] | did not demonstrate any cytotoxicity | 300 | >500 | 0.60 | > 500 | did not show any significant cytotoxic effect | > 500 | did not show any significant cytotoxic effect | > 500 | did not show any significant cytotoxic effect | – | – | – | –
O=c1cc(-c2ccccc2)oc2cc(O[C@@H]3O[C@H](CO[C@@H]4O[C@H](CO)[C@@H](O)[C@H](O)[C@H]4O)[C@@H](O)[C@H](O)[C@H]3O)c(O)c(O)c12 [compound 11, Oroxin B] | – | 300 | >300 | – | > 300 | – | > 300 | – | > 300 | – | >2.33 | 129 ± 19 | – | –
O=c1c(O)c(-c2ccc(O)cc2)oc2cc(O)cc(O)c12 [compound 14, Kaempferol] | – | 200 | >200 | – | > 200 | – | > 200 | – | > 200 | – | >5.77 | < 50 | 18.5 ± 5.49 | 34.6 ± 7.69
Oc1cc(O)c2c(c1)O[C@H](c1ccc(O)c(O)c1)[C@H](O)C2 [compound 22, (-)-Epicatechin] | – | 300 | >500 | – | > 500 | – | > 500 | – | > 500 | – | >3.43 | 146 ± 20.8 | – | –
O=c1c(O[C@@H]2O[C@H](CO)[C@@H](O)[C@H](O)[C@H]2O)c(-c2ccc(O)c(O)c2)oc2cc(O)cc(O)c12 [compound 18, Isoquercitrin] | – | 300 | >500 | – | > 500 | – | > 500 | – | > 500 | – | >5.30 | 94.4 ± 1.59 | – | –
Oc1cc(O)c2c(c1)OC(c1ccc(O)c(O)c1)C(O)C2 (racemic) [compound 21, (±)-Catechin] | – | 300 | >500 | – | > 500 | – | > 500 | – | > 500 | – | >3.19 | 157 ± 12 | – | –
O=c1c(O[C@@H]2O[C@H](CO)[C@H](O)[C@H](O)[C@H]2O)c(-c2ccc(O)c(O)c2)oc2cc(O)cc(O)c12 [compound 19, Hyperoside] | – | 300 | >500 | – | > 500 | – | > 500 | – | > 500 | – | >6.02 | 83.1 ± 10.7 | – | –
C[C@@H]1O[C@@H](OC[C@H]2O[C@@H](Oc3c(-c4ccc(O)c(O)c4)oc4cc(O)cc(O)c4c3=O)[C@H](O)[C@@H](O)[C@@H]2O)[C@H](O)[C@H](O)[C@H]1O [compound 20, Rutin] | – | 300 | >500 | – | > 500 | – | > 500 | – | > 500 | – | >3.40 | 147 ± 21.1 | – | –
O=c1c(O)c(-c2ccc(O)c(O)c2)oc2cc(O)cc(O)c12 [compound 15, Quercetin] | – | 300 | >500 | – | > 500 | – | > 500 | – | > 500 | – | – | – | 11.2 ± 3.85 | –
O=C(O[C@@H]1Cc2c(O)cc(O)cc2O[C@H]1c1cc(O)c(O)c(O)c1)c1cc(O)c(O)c(O)c1 [compound 26, (-)-Gallocatechin gallate] | – | 300 | >500 | – | > 500 | – | 433 ± 8.96 | – | > 500 | – | >11.52 | < 50 | – | 43.4 ± 2.93
O=c1cc(-c2ccccc2)oc2cc(O)c(O)c(O)c12 [compound 7, Baicalein] | – | 200 | >500 | – | 494 ± 9.64 | – | > 500 | – | > 500 | – | >9.80 | 51 ± 6.48 | – | –
